Data as given in US9428536B2, “Immunostimulatory G, U-containing oligoribonucleotides” (Zoetis Belgium SA, priority 2002, dated 2016).

Assays:
human PBMC = assay: Human PBMC IL-12 p40 secretion, ELISA; assay type: cell-based; settings: for IL-12 p40 response of human PBMC (in words): Example 1, FIG. 1, 16 hours, RNA 50 μg/ml with and without DOTAP, R-848 2 μg/ml, LPS 1 μg/ml, Pam3Cys 5 μg/ml, poly IC 50 μg/ml; for effect of DOTAP on the amount of IL-12 p40 secreted: Example 4, FIG. 5, presence versus absence of DOTAP, 16 hour incubation
Experimental: Human peripheral blood mononuclear cells (PBMCs) were isolated from healthy donors, plated at 3×10^5 cells/well, stimulated in vitro with various test and control immunostimulatory agents for 16 hours, and then analyzed by enzyme-linked immunosorbent assay (ELISA) using matched antibody pairs from BD-Pharmingen for secreted cytokines IL-12 p40 and TNF-α, performed according to the manufacturer's protocol. Also included were certain negative controls, including medium alone and DOTAP (10 μg/200 μl culture well; “Liposomes”) alone. The control immunostimulatory agents included the imidazoquinolone R-848 (2 μg/ml), lipopolysaccharide (LPS; 1 μg/ml), Pam3Cys (5 μg/ml), poly IC (50 μg/ml), and CpG DNA (50 μg/ml). These are reported ligands for TLR7, TLR4, TLR2, TLR3, and TLR9, respectively. Test immunostimulatory agents included the following RNA molecules, each at 50 μg/ml, with and without DOTAP (10 μg total “with Liposomes” and “without Liposomes”, respectively): GUGUUUAC alone; GUAGGCAC alone; GUGUUUAC in combination with GUAGGCAC; GUAGGA; GAAGGCAC; CUAGGCAC; CUCGGCAC; and CCCCCCCC. These RNA oligonucleotides each contained a phosphorothioate linkage between the penultimate and 3′ terminal nucleoside.
The experiments described in the preceding example were repeated with varied concentrations of RNA oligonucleotides in order to assess the dose-response behavior of human PBMCs to G,U-containing RNA oligonucleotides of the invention. A total of 10, 3 or 1 μg RNA was added to 10 μg DOTAP and then added to the 200 μl culture wells. After 16 hours IL-12 p40 and TNF-α ELISAs were performed as described in Example 1. […]
RNA oligomers GUGUGUGU, GUGUGUG, GUGUGU, GUGUG, GUGU, GUG, and GU, with and without DOTAP, were added over a range of concentrations to overnight cultures of human PBMC. Culture supernatants were harvested, and human TNF-α, IL-12 p40, and IFN-α were measured by ELISA using matched antibody pairs from BD-Pharmingen according to the manufacturer's protocol. […]

[1] = tested on: wild type murine macrophages; assay: Wild type murine macrophages in the presence of IFN-γ, IL-12 p40 ELISA; assay type: cell-based, mouse; settings: FIG. 6 Panel A, 12 hours, RNA with DOTAP
Experimental: The following murine cells were isolated and incubated with various RNAs and other known TLR ligands in order to assess species-, cell type-, and signaling pathway-specificity: wild type macrophages in the presence of IFN-γ; MyD88-deficient macrophages in the presence of IFN-γ; J774 (mouse macrophage cell line); and RAW 264.7 (mouse macrophage cell line, e.g., ATCC TIB-71). Murine bone macrophages were generated from wild type or MyD88-deficient C57BL/6 mice by culturing bone marrow cells with 50 ng/ml M-CSF for 5 days. Cells were seeded at 25,000 cells/well and treated with 20 ng/ml IFN-γ for 16 hours. The murine macrophage cell lines RAW and J774 were seeded at 10,000 cells/well.
The following test and control agents were examined: R-848 (2 μg/ml), ODN 1668 (CpG DNA; 5′-[…]-3′; SEQ ID NO:7); LPS (1 μg/ml); poly IC (50 μg/ml); Pam3Cys (5 μg/ml); Ionomycin/TPA; the following RNA molecules, each with (“+Lipo”) and without DOTAP (10 μg/200 μl culture well): GUGUUUAC alone (RNA1); GUAGGCAC alone (RNA2); GUGUUUAC in combination with GUAGGCAC (RNA1/2); […] (RNA6; SEQ ID NO:8); […] (RNA9; SEQ ID NO:9); and the following DNA molecules, corresponding to RNA1, RNA2, and RNA1/2: GTGTTTAC alone (DNA1); GTAGGCAC alone (DNA2); and GTGTTTAC in combination with GTAGGCAC (DNA1/2). These RNA and DNA oligonucleotides each contained a phosphorothioate linkage between the penultimate and 3′ terminal nucleoside. RNA6 and RNA9 each contained in addition a phosphorothioate linkage between the penultimate and 5′ terminal nucleoside. RNA6 corresponds to a ribosomal RNA stem loop derived from Listeria monocytogenes. RNA9 corresponds to a stem loop derived from human immunodeficiency virus (HIV, an RNA retrovirus). The cells were cultured for 12 hours and supernatants were harvested. Murine IL-12 p40, IL-6, and TNF-α were measured by ELISA using matched antibody pairs from BD-Pharmingen according to the manufacturer's protocol.

Compound | IL-12 p40 response of human PBMC (in words) (human PBMC) | effect of DOTAP on the amount of IL-12 p40 secreted (human PBMC) | IL-12 p40 secretion by wild type murine macrophages [1]
CCCCCCCCCCCCCCCC(=O)N[C@@H](CSC[C@@H](COC(=O)CCCCCCCCCCCCCCC)OC(=O)CCCCCCCCCCCCCCC)C(=O)O [Pam3Cys, reference compound] | responsive | about the same immunostimultory effect | significant amounts
lipopolysaccharide [LPS, reference compound] | responsive | reduced immunostimultory effect | significant amounts
poly IC [reference compound] | responsive | reduced immunostimultory effect | significant amounts
